# Results: patent US20250263404A1, “AMINOPYRIDINES AS ACTIVATORS OF PI3 KINASE” (UCL Business Ltd, priority 2021, published 2025)
# Tests used:
# rat sciatic nerve = experiment: Rat sciatic nerve crush injury model; type: in vivo; conditions: 21 days
# Protocol: Stimulated by these observations, we next tested 1938 in the sciatic nerve crush model in the rat, an in vivo model of peripheral nerve injury and regeneration. […] Immediately after the nerve crush (FIG. 5e, i-ii), 1938 was delivered via a single intraneural injection into the proximal crush site (FIG. 5e, iii) and via a minipump implanted adjacent to the nerve (FIG. 5e, iv), loaded with 1938 solution, for continuous delivery for the duration of the experiment. Analyses were conducted 3 weeks after injury.
# Adult female Sprague Dawley rats (230-280 g, n=10, Charles River, UK) were anaesthetised by isoflurane inhalation in an induction chamber (5% isoflurane in O2, 0.8 l/min). Anaesthesia was maintained with 1.5-2.5% isoflurane inhalation, and the left sciatic nerve exposed at mid-thigh level.
# The nerve was crushed by application of constant pressure using fully closed sterile type 4 tweezers (TAAB) for 15 sec. This was repeated two more times at the same point, with 45° rotation between each crush. The injury site was marked with a 10/0 epineurial non-absorbant suture (Ethicon). Following injury, frozen aliquots of 1938 solution and vehicle were defrosted. A single 2 μl injection of 1938 solution (5 μM in sterile H2O) or vehicle (sterile dH2O) was administered proximal to the crush site with a 10 μl Hamilton syringe. An osmotic minipump (Alzet 1004, Charles River, UK) was also implanted between the muscle layers, adjacent to the nerve oriented with the outlet nearest to the crush site, loaded with 1938 solution (100 μM in sterile H2O) or vehicle (sterile H2O). Animals were randomly assigned to groups (n=5 per group) and one experimenter was kept blind to condition for conducting functional and histological analyses. […]
# At the end-point of the experiment (21 days), rats were anaesthetised and the sciatic nerve exposed as described above. […] The MI was manufactured using a previously documented protocol (Lancashire, H. T. et al. J Neural Eng 13, 034001 (2016). Electrode impedance of the MNI was 27.1±19.8 kΩ at 1k Hz. Compound muscle action potential (CMAP) was obtained by sciatic nerve stimulation with square wave pulses of 100 μsec with intensity from 1-10 mA. Stimulus was increased in 0.2 mA steps until muscle response amplitude no longer increased. CMAP amplitude was measured from peak to peak and recorded in triplicate for both the ipsilateral and contralateral side. The CMAP with the largest amplitude was selected for analysis.
# A modified multipoint stimulation technique was used to calculate Motor Unit Number Estimation (MUNE) (Shefner, J. M. et al. Muscle & nerve 34, 603-607 (2006); Jacobsen, A. B. et al. J Vis Exp (2018); Arnold, W. D. et al. J Vis Exp (2015)). […] The CMAP was divided by the mean magnitude of SMUPs to quantify MUNE. […]
# G106V mutant of p110α = target: T1, G106V mutant of p110α (Homo sapiens, UniProt P42336, G106V); experiment: ADP-Glo kinase assay, oncogenic mutant G106V; type: biochemical; conditions: compared with pY
# T1 construct: Full-length p110α was expressed in a complex with full-length p85α (for biochemistry and HDX-MS); 6xHis followed by TEV protease site (N); made in house; host or cells: Spodoptera frugiperda Sf9 (plasmid JB35)
# T1 sequence (P42336 whole entry G106V): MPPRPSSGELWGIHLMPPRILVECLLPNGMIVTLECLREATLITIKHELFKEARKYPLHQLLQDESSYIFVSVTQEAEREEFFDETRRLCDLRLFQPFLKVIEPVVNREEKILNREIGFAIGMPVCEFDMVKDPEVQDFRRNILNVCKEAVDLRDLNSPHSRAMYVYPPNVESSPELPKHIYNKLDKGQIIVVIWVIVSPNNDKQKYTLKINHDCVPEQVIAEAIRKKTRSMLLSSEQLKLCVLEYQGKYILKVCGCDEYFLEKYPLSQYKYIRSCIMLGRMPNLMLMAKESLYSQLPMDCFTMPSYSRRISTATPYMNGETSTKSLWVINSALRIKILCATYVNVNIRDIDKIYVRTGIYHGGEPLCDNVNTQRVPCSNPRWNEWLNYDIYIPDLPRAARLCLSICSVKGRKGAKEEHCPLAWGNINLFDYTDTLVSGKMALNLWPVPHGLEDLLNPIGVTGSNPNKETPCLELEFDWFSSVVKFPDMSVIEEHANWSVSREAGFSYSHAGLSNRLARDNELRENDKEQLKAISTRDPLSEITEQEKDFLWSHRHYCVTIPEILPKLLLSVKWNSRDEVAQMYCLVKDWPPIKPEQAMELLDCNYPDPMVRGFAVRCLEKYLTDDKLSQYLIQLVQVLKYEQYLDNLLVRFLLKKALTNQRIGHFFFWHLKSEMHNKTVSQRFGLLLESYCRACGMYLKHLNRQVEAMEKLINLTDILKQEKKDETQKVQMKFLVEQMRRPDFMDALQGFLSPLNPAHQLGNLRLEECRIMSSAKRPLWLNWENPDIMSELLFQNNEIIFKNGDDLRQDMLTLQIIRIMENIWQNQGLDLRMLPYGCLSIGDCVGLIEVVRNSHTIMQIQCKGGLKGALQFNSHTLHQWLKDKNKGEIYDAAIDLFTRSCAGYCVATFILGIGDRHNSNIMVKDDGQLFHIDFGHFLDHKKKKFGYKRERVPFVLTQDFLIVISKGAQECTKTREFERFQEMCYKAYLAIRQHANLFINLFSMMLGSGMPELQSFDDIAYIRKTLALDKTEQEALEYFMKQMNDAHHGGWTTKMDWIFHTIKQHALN
# T1 sequence (P27986 whole entry partner): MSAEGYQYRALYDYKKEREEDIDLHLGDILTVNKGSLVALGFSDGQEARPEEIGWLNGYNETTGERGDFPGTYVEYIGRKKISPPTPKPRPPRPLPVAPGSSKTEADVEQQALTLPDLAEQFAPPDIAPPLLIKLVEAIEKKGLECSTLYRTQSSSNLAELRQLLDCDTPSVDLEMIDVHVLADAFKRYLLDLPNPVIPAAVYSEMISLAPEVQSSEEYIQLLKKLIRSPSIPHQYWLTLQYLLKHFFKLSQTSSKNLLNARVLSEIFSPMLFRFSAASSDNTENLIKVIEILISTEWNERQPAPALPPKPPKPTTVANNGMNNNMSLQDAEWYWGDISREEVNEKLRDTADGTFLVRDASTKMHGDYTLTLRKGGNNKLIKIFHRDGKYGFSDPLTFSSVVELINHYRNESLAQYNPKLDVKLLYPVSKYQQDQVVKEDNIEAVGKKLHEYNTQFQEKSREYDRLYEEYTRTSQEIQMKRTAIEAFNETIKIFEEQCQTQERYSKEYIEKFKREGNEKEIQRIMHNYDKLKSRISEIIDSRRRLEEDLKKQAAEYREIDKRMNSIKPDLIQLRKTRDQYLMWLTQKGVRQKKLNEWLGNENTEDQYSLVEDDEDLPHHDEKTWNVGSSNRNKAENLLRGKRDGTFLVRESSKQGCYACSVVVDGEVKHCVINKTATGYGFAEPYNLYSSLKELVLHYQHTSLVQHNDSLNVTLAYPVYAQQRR
# Protocol: Co-stimulation of 1938 with pY led to an additive activatory effect for G106V, but not for the N345K and E545K mutants (FIG. 1f/FIG. 22f).
# Kinase reactions were performed with ADP-Glo kinase assay kit (Promega Corporation). The enzyme, substrate and compounds were diluted in reaction buffer (20 mM HEPES, 50 mM NaCl, 50 mM KCl, 3 mM MgCl2, 1 mM EGTA, 1 mM TCEP, pH 7.4). Final concentrations of PI3Kα and PI3Kδ used were 25 nM and 50 nM for PI3Kβ. Liposomes (5% brain PI(4,5)P2, 20% brain phosphatidylserine, 45% brain phosphatidylethanolamine, 15% brain phosphatidylcholine, 10% cholesterol, 5% sphingomyelin (Avanti Polar Lipids)) were used at a final concentration of 1 mg/ml. The pY sequence is ESDGG(pY)[…](pY)[…].
# For characterisation of the effects of 1938 on in vitro PI3K enzymology, all reactions were performed at room temperature with 384 white-polystyrene plates (Corning #3574). The final DMSO concentration in the assay was between 0.5%-1.8%. The reaction mixture contained 2 μl PI3K enzyme, 2 μl compound and/or pY and 2 μl of liposome substrate mixed with ATP. ATP was used at a final concentration of 200 μM, unless otherwise stated. The enzyme and compounds were pre-incubated for 10 min prior to addition of substrate. […] For enzyme kinetic calculations, data was expressed as velocity (pmol of ADP generated/sec). […]
structure (smiles),measurement,setting,value
CCN1CCN(c2ccc(Nc3cc(Nc4cccc5c4N(C(C)=O)CC5)ccn3)cc2)CC1 [Example 1938],"neurofilament- and ChAT-positive axons, treatment versus control",rat sciatic nerve; 3 mm and 6 mm distal to the crush site,equivalent numbers
same,number of ChAT-positive motor axons,rat sciatic nerve; distal common peroneal nerve,an increase
same,compound muscle action potential (CMAP) recovery,rat sciatic nerve; tibialis anterior muscle,greater
same,motor unit number estimation (MUNE),rat sciatic nerve; tibialis anterior muscle,increased
same,activation of G106V mutant,G106V mutant of p110α,levels comparable with stimulation with pY
